pIC50: −log10 of the molar value. Counter-ions that a name gives are not always drawn.
Molecular target: T1, human αvβ3 (Homo sapiens, UniProt P05106+P06756)
T1 construct: purchased Chemicon CC1019
Assay: αvβ3-vitronectin assay (ELISA, inhibition of biotinylated vitronectin binding)
Settings: plate-coated human αvβ3, biotinylated human vitronectin 0.5 μg/mL, room temperature; read-out: αvβ3 IC50 (Inhibition of the αvβ3-Vitronectin Interaction)
Experimental: The assay was based on the method of Niiya (Niiya, K., et al, Blood 70:475-483 (1987)). All the steps were performed at room temperature. Costar 9018 flat-bottom 96-well ELISA plates were coated overnight with 100 μL/well of 0.4 μg/mL human αvβ3 (Chemicon CC1019) in TS buffer (20 mM Tris-HCl pH 7.5, 150 mM NaCl, 1 mM CaCl2, 1 mM MgCl2, 1 mM MnCl2). Plates were blocked for 2 hours with 200 μL/well of TS buffer containing 1% BSA (TSB buffer), and washed 3 times with 200 μL/well of PBST buffer. Controls or test compound were mixed with 0.5 μg/mL of human vitronectin (Chemicon CC080) that had been biotinylated in-house with sulfo-NHS-LC-LC-biotin (Pierce 21338, 20:1 molar ratio), and 100 μL/well of these solutions (in TSB buffer) were incubated for 2 hours. The plate was then washed 5 times with PBST buffer, and 100 μL/well of 0.25 μg/mL NeutrAvidin-horseradish peroxidase conjugate (Pierce 31001) in TSB buffer was incubated for 1 hour. Following a 5-fold PBST buffer wash, the plate was developed by adding 100 μL/well of 0.67 mg o-phenylenediamine dihydrochloride per mL of 0.012% H2O2, 22 mM sodium citrate, 50 mM sodium phosphate, pH 5.0 at room temperature. The reaction was stopped with 50 μL/well of 2M H2SO4, and the absorbence at 492 nm was recorded. Percent (%) inhibition was calculated from the average of two separate determinations relative to buffer controls (no test compound added), and a four parameter fit (Marquardt, D. W., J. Soc. Indust. Appl. Math. 11:431-441 (1963)) was used to estimate the half maximal inhibition concentration (IC50).

T1 sequence (P06756 31-889 limits assumed): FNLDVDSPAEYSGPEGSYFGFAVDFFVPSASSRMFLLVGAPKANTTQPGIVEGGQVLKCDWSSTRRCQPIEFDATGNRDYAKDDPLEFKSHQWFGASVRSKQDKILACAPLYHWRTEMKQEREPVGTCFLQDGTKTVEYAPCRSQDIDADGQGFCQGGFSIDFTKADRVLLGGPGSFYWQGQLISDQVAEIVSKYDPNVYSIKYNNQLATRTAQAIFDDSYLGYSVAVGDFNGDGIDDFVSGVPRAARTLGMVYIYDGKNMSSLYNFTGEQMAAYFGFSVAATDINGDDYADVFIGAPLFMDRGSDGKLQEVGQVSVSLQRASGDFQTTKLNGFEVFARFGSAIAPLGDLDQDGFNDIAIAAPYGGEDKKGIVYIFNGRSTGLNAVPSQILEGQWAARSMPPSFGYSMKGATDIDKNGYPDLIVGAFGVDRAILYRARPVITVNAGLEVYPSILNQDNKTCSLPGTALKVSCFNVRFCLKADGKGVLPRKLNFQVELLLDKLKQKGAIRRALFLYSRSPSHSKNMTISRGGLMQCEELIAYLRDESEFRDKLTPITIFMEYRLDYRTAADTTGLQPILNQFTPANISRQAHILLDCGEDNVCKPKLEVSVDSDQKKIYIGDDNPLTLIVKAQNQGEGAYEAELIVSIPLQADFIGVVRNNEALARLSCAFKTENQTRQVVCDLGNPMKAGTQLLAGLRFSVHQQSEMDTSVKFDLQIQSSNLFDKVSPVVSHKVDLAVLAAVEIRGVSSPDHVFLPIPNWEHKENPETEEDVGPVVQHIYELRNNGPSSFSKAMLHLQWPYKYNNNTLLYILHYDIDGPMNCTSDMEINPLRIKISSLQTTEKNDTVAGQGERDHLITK
T1 sequence (P06756 891-1048 partner limits assumed): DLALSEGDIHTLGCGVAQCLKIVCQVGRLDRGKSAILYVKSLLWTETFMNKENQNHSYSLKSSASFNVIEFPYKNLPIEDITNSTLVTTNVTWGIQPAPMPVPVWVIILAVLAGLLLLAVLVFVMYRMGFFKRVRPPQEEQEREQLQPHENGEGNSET
T1 sequence (P05106 27-788): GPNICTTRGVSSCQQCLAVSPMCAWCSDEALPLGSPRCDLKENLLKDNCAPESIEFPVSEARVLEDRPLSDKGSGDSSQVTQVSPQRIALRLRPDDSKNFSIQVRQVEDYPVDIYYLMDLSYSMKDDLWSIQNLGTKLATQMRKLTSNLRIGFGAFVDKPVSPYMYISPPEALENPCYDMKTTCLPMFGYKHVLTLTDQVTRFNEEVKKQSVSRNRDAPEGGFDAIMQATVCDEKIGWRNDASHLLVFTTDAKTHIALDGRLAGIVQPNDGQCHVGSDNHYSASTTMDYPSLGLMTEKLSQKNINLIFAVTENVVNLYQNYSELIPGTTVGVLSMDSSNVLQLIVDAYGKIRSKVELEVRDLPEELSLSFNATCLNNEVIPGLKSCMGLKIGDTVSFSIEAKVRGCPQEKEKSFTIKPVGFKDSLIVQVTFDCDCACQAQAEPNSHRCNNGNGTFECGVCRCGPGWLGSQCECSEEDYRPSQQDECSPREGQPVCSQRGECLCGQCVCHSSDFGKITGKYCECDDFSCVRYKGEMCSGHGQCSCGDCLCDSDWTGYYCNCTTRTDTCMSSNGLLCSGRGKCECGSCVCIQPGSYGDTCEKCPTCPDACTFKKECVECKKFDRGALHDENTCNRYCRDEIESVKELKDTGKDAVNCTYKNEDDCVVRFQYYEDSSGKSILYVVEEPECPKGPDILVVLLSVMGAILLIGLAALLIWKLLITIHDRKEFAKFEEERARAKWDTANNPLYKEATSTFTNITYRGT

| SMILES | pIC50 |
| --- | --- |
| COc1ccc(OC)c(S(=O)(=O)N2Cc3cc(OCCCONC(=N)N)ccc3C[C@H]2C(=O)O)c1 [Example 1, (3S)-7-[3-(Amidinoaminooxy)propoxy]-2-[(2,5-dimethoxyphenyl)sulfonyl]-1,2,3,4-tetrahydroisoquinoline-3-carboxylic acid trifluoroacetic Acid Salt] | 7.14 |
| N=C(N)NOCCCOc1ccc2c(c1)CN(S(=O)(=O)c1ccccc1)[C@H](C(=O)O)C2 [Example 2, (3S)-7-[3-(Amidinoaminooxy)propoxy]-2-(phenylsulfonyl)-1,2,3,4-tetrahydroisoquinoline-3-carboxylic Acid Trifluoroacetic Acid Salt] | 5.96 |
| N=C(N)NOCCCOc1ccc2c(c1)CN(S(=O)(=O)c1ccc3ccccc3c1)[C@H](C(=O)O)C2 [Example 3, (3S)-7-[3-(Amidinoaminooxy)propoxy]-2-(2-naphthylsulfonyl)-1,2,3,4-tetrahydroisoquinoline-3-carboxylic Acid Trifluoroacetic Acid Salt] | 6.30 |

Source: patent publication US6486174B2, “Tetrahydroisoquinoline-3-carboxylic acid alkoxyguanidines as integrin antagonists” (3-Dimensional Pharmaceuticals, Inc., priority 2000, dated 2002)
